Laboratory results as given in patent US7132554B2, “Therapeutic synergy of anti-cancer compounds” (Bristol-Myers Squibb Company, priority 2004, dated 2006).

Key:
[1] = test system: Human GEO colon carcinoma xenografts; experiment: Antitumor testing versus s.c. GEO colon carcinoma xenografts in nude mice; assay type: in vivo; parameters: key: Treatment resulting in more than one death is described as “TOX” (i.e., toxic); settings: q3dx6 from Day 11
Method: (§1) Compounds. The oral taxane (Ia) was synthesized by Bristol-Myers Squibb (BMS) chemists. The compound was dissolved initially in equal portions of Cremophor EL and ethanol, followed by aqueous dilution to yield final ethanol and Cremophor EL concentrations of 10%.
(§2) Animals. Athymic (“nude”) mice, 5–6 weeks of age, purchased from Harlan Sprague Dawley (Indianapolis, Ind.), were quarantined for ˜2 weeks before their use for tumor propagation and drug efficacy testing. They were fed food and water ad libitum. All studies involving these animals were conducted in accordance with NIH (Bethesda, Md.) and Bristol Myers-Squibb animal care and use guidelines.
(§3) Tumors. Human L2987 lung and GEO colon carcinomas were maintained in nude mice by serial s.c. passage. All efficacy testing involved tumors implanted s.c. in nude mice.
(§4) Antitumor Testing. A detailed description of the methods used to assess antitumor effects has been provided previously in Rose, W. C., Fairchild, C., and Lee, F. Y. F. Preclinical antitumor activity of two novel taxanes. Cancer Chemother. Pharmacol. 47: 97–105, 2001. […] Delays in tumor growth are also converted to log cell kill (LCK) values by methods described in the same article. Statistical evaluations of data were performed using Gehan's generalized Wilcoxon test for comparisons of time to reach tumor target size. Statistical significance was declared at P<0.05. Group sizes typically consisted of eight mice. Activity was defined as ≧1 LCK.
(§5) Definitions of MTD and OD have been published previously in the above-noted article. Therapeutic results were reported at the OD, i.e., that yielding the best effect without exceeding the MTD. Therapeutic synergy represents a therapeutic effect achieved with a tolerated regimen of a combination treatment that exceeds the optimal effect achieved at any tolerated dose of monotherapy associated with the same drugs used in the combination. Cured mice are defined as those whose tumors are ≦35 mg when assessed 10 tumor volume doubling times (based on control tumor growth between 500 mg and 1 g) post-termination of treatment. A regimen was described as “toxic” if more than one mouse died during or within 10 days following the final drug treatment, or anytime after the initiation of drug therapy whose tumor size at the time of death was below 1 g.

[2] = Tolerability (body weight change, deaths, MTD) in nude mice bearing L2987 tumors; assay type: in vivo
Method: as §1, §2, §5

[3] = Phase I clinical trial, weekly schedule of administration; assay type: in vivo, human
Text: The preclinical activity of Compound Ia was observed using several different schedules, with an intermittent administration regimen being optimal in one carefully examined tumor model. […] Heavily pretreated patients, typically having received two or three prior chemo/radiotherapies, have responded to weekly Compound Ia. All but one of the several responding patients had NSCLC, and all but one of these had previously received either a parenteral taxane or a small molecule anti-EGFR compound, gefitinib, or both. The purpose of our current investigations was to evaluate this oral taxane versus preclinical human tumor models using a multiple administration treatment regimen, in combination with an inhibitor of EGFR.

[4] = test system: Human L2987 lung carcinoma xenografts; experiment: Antitumor testing versus s.c. L2987 lung carcinoma xenografts in nude mice; assay type: in vivo; settings: for T-C: tumor target 1.0 g
Method: as §1, §2, §3, §4, §5

[5] = Tolerability (body weight change, deaths, MTD) in nude mice bearing GEO tumors; assay type: in vivo
Method: as §1, §2, §5

[6] = test system: Human GEO colon carcinoma xenografts; settings: known from earlier work; cited from earlier work
[7] = confirmatory study, q3dx6 from Day 20, Compound Ia 40 mg/kg/adm p.o.
[8] = confirmatory study, q3dx6 from Day 20, Compound Ia 60 mg/kg/adm p.o.
[9] = pilot study, q3dx4 from Day 22, Compound Ia 40 mg/kg/adm p.o.
[10] = pilot study, q3dx4 from Day 22, Compound Ia 60 mg/kg/adm p.o.

SMILES: COC(=O)OC12COC1CC(O)C1(C)C(=O)C(OC(C)=O)C3=C(C)C(OC(=O)C(O)C(NC(=O)OC(C)(C)C)C(C)(C)C)CC(O)(C(OC(=O)c4ccccc4)C21)C3(C)C (centres unmarked) [Compound Ia]
- LCK (log cell kill) ([1]; Compound Ia 40 mg/kg/adm p.o.): 0.3
- T-C ([1]; Compound Ia 40 mg/kg/adm p.o., tumor target 1.0 g): 4.0 days
- LCK (log cell kill) ([1]; Compound Ia 60 mg/kg/adm p.o.): 0.7
- T-C ([1]; Compound Ia 60 mg/kg/adm p.o., tumor target 1.0 g): 10.0 days
- LCK (log cell kill) ([1]; Compound Ia 90 mg/kg/adm p.o.): TOX
- T-C ([1]; Compound Ia 90 mg/kg/adm p.o.): TOX
- Average body weight change [2, 7]: 1.5 g
- Average body weight change [2, 8]: -0.9 g
- MTD, cumulative exposure ([2]; confirmatory study, 60 mg/kg/adm p.o. q3dx6, tolerated with minimal body weight loss): 360 mg/kg
- historical MTD, cumulative exposure ([2]; p.o., established using a schedule similar to q3dx4): approximately 300 mg/kg
- Average body weight change [2, 9]: 0.7 g
- Average body weight change [2, 10]: 1.0 g
- Clinical toxicity [3]: manageable toxicity
- LCK (log cell kill) [4, 7]: 0.5
- T-C [4, 7]: 14.5 days
- LCK (log cell kill) [4, 8]: 1.0
- T-C [4, 8]: 28.0 days
- LCK (log cell kill) [4, 9]: 0.2
- T-C [4, 9]: 5.5 days
- LCK (log cell kill) [4, 10]: 0.6
- T-C [4, 10]: 14.0 days
- MTD ([5]; p.o., q3dx6): 60 mg/kg/adm
- Average body weight change ([5]; q3dx6 from Day 11, Compound Ia 40 mg/kg/adm p.o.): -2.6 g
- Average body weight change ([5]; q3dx6 from Day 11, Compound Ia 60 mg/kg/adm p.o.): -1.8 g
- dead/total ([5]; q3dx6 from Day 11, Compound Ia 90 mg/kg/adm p.o.): (3/8)

SMILES: COc1cc2ncnc(Nc3ccc(F)c(Cl)c3)c2cc1OCCCN1CCOCC1 [gefitinib]
- Responsiveness of the GEO tumor model [6]: responsive
